From US11254651B2, “Histone methyltransferase inhibitors” (GLOBAL BLOOD THERAPEUTICS, INC., priority 2016, dated 2022)
Structures can show the parent of a compound that is named as a salt.

Molecular target: T1, G9a (Homo sapiens, UniProt Q96KQ7)
T1 sequence (Q96KQ7 1-1210): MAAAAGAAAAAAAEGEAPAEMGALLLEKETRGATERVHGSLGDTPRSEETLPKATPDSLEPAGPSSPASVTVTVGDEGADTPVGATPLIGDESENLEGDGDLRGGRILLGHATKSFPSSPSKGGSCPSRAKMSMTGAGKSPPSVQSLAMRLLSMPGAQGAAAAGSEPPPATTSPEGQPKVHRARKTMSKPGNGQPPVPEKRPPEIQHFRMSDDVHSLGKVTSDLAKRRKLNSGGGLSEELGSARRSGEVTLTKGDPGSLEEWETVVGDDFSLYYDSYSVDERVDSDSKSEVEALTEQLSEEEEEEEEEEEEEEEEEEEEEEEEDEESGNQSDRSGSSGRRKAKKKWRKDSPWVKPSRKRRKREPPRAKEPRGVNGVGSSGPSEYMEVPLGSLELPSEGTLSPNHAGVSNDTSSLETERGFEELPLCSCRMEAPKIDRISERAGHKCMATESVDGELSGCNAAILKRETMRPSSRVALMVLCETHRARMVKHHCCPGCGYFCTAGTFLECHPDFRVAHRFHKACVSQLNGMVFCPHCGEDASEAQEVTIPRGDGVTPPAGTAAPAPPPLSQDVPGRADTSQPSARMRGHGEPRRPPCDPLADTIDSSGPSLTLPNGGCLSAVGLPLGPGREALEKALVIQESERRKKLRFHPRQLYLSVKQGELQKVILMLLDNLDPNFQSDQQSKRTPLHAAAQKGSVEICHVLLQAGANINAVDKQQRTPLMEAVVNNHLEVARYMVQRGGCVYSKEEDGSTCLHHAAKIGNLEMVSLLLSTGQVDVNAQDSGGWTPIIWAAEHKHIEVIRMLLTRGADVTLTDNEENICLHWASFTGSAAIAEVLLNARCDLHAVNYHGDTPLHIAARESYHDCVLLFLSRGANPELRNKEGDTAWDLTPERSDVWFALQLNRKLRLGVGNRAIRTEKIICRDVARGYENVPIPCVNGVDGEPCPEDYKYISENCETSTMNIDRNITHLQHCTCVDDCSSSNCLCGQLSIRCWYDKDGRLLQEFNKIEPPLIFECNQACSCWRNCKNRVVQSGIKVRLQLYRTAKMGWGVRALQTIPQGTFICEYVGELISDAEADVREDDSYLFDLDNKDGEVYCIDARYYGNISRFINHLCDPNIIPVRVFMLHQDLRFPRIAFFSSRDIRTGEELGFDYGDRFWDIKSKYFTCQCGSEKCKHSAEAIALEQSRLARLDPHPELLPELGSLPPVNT
Experiment: G9a AlphaLISA enzymatic activity assay
Format: biochemical
Conditions: 0.15 nM G9a, 15 uM S-adenosyl-methionine, 100 nM biotinylated histone 3 peptide (1-21), 1 hour room temperature
Text: The G9a AlphaLISA assay was used to detect the methyl modifications of a biotinylated histone H3 peptide by the compounds. These modifications are done by the histone methyl transferase activity of the G9a enzyme. The assay consists of reading a chemiluminescent signal at 615 nm; this signal is generated by a laser excitation at 680 nm that transfers a reactive singlet oxygen between the donor beads and acceptor beads. Donor beads are streptavidin conjugated and bind to the biotin on the peptide. Acceptor beads are conjugated with an antibody that recognizes the specific G9a methyl mark on the peptide. If there is a methyl mark on the peptide, the acceptor beads will bind to the peptide. Upon binding, the acceptor beads will be in close proximity (<200 nm) of the donor beads and when the donor beads are excited, the transfer of the oxygen can occur and a strong signal will be generated. If there is no methyl mark, the interaction between beads will not occur and signal will be at background levels.
For the assay, the following buffer was used to set up reactions: 50 mM Tris-HCl pH9, 50 mM NaCl, 0.01% Tween-20 and 1 mM DTT (added fresh prior to starting the reactions). The assay is set up by adding a final concentration of 0.15 nM G9a, 15 uM S-adenosyl-methionine and, 100 nM biotinylated histone 3 peptide (1-21). The reaction is incubated at room temperature for 1 hour, and subsequently quenched by the addition of the acceptor beads (anti-H3k9me2 AlphaLISA acceptor beads, PerkinElmer #AL117) at a final concentration of 20 ug/mL. The acceptor beads are incubated for 1 hour. After 1 hour, the donor beads are added at a final concentration of 20 ug/mL (Alpha Streptavidin donor beads, PerkinElmer #6760002). Donor beads are incubated for 0.5 hours. Both donor and acceptor beads are resuspended in AlphaLISA 5X Epigenetics Buffer 1 Kit (PerkinElmer #AL008) prior to addition to the reaction. All manipulations and incubations with the donor and acceptor beads are done in subdued light. Signal is detected in an EnVision plate reader in Alpha mode (see ACS Med Chem Lett. 2014 Jan. 2; 5(2):205-9. doi: 10.1021/m1400496h. eCollection 2014. Discovery and development of potent and selective inhibitors of histone methyltransferase g9a.)
Percent inhibition was calculated for each compound dilution and the concentration that produced 50% inhibition was calculated. This value is presented as the IC50.

IC50	Compound
1.3 nM	CNc1c2ccccc2nc2cc(OCCCN3CCCC3)c(OC)cc12 [Entry 1, 2-methoxy-N-methyl-3-[3-(pyrrolidin-1-yl)propoxy]acridin-9-amine]
4.4 nM	COc1cc2c(NC3CCOCC3)c3ccccc3nc2cc1OCCCN1CCCC1 [Entry 3, 2-methoxy-N-(oxan-4-yl)-3-[3-(pyrrolidin-1-yl)propoxy]-acridin-9-amine trifluoroacetate]
1.1 nM	COc1cc2c(NC3CCN(C)CC3)c3ccccc3nc2cc1OCCCN1CCCC1 [Entry 4, 2-methoxy-N-(1-methylpiperidin-4-yl)-3-[3-(pyrrolidin-1-yl)propoxy]acridin-9-amine trifluoroacetate]
42 nM	COc1cc2c(O)c3ccccc3nc2cc1OCCCN1CCCC1 [Entry 6, 2-methoxy-3-[3-(pyrrolidin-1-yl)propoxy]acridin-9-ol formate]
1400 nM	CCOc1c2ccccc2nc2cc(OCCCN3CCCC3)c(OC)cc12 [Entry 7, 9-ethoxy-2-methoxy-3-[3-(pyrrolidin-1-yl)propoxy]acridine formate]
26.1 nM	CNc1c2ccccc2nc2cc(OCCCN3CCCC3)c(Cl)cc12 [Entry 9, 2-chloro-N-methyl-3-[3-(pyrrolidin-1-yl)propoxy]acridin-9-amine formate]
56.7 nM	CNc1c2ccccc2nc2cc(OCCCN3CCCC3)ccc12 [Entry 10, N-methyl-3-[3-(pyrrolidin-1-yl)propoxy]acridin-9-amine formate]
1230 nM	CNc1c2ccccc2nc2cc(OCCCN3CCCC3)c(C)cc12 [Entry 11, N,2-dimethyl-3-[3-(pyrrolidin-1-yl)propoxy]acridin-9-amine formate]
76 nM	CCN(CC)CCCOc1cc2nc3ccccc3c(NC)c2cc1OC [Entry 14, 3-[3-(diethylamino)propoxy]-2-methoxy-N-methylacridin-9-amine trifluoroacetate]
11 nM	COc1cc2c(NC3CCN(C(C)C)CC3)c3c(nc2cc1OCCCN1CCCC1)CCCC3 [Entry 16, 7-methoxy-N-[1-(propan-2-yl)piperidin-4-yl]-6-[3-(pyrrolidin-1-yl)propoxy]-1,2,3,4-tetrahydroacridin-9-amine trifluoroacetate]
510 nM	COc1cc2cc3c(nc2cc1OCCCN1CCCC1)CCCC3 [Entry 17, 7-methoxy-6-[3-(pyrrolidin-1-yl)propoxy]-1,2,3,4-tetrahydroacridine formate]
10 nM	COc1cc2c(NC(C)C)c3c(nc2cc1OCCCN1CCCC1)CCC3 [Entry 19, 7-methoxy-N-(propan-2-yl)-6-[3-(pyrrolidin-1-yl)propoxy]-1H,2H,3H-cyclopenta[b]quinolin-9-amine formate]
250 nM	CNc1c2c(nc3cc(OCCCN4CCC(F)C4)c(OC)cc13)CCC2 (stereo not drawn) [Entry 29, 6-[3-(3-fluoropyrrolidin-1-yl)propoxy]-7-methoxy-N-methyl-1H,2H,3H-cyclopenta[b]quinolin-9-amine]
17.5 nM	COc1cc2c(NC3CC3)c3c(nc2cc1OCCCN1CCCC1)CCC3 [Entry 31, N-cyclopropyl-7-methoxy-6-[3-(pyrrolidin-1-yl)propoxy]-1H,2H,3H-cyclopenta[b]quinolin-9-amine trifluoroacetate]
14 nM	COc1cc2c(NCC3CC3)c3c(nc2cc1OCCCN1CCCC1)CCC3 [Entry 32, N-(cyclopropylmethyl)-7-methoxy-6-[3-(pyrrolidin-1-yl)propoxy]-1H,2H,3H-cyclopenta[b]quinolin-9-amine formate]
16 nM	COCCNc1c2c(nc3cc(OCCCN4CCCC4)c(OC)cc13)CCC2 [Entry 38, 7-methoxy-N-(2-methoxyethyl)-6-[3-(pyrrolidin-1-yl)propoxy]-1H,2H,3H-cyclopenta[b]quinolin-9-amine formate]
20 nM	COc1cc2c(NCC3COC3)c3c(nc2cc1OCCCN1CCCC1)CCC3 [Entry 39, 7-methoxy-N-[(oxetan-3-yl)methyl]-6-[3-(pyrrolidin-1-yl)propoxy]-1H,2H,3H-cyclopenta[b]quinolin-9-amine formate]
150 nM	COc1cc2c(Nc3ccccn3)c3c(nc2cc1OCCCN1CCCC1)CCC3 [Entry 40, N-{7-methoxy-6-[3-(pyrrolidin-1-yl)propoxy]-1H,2H,3H-cyclopenta[b]quinolin-9-yl}pyridin-2-amine formate]
19 nM	COc1cc2c(NCC3(C)CC3)c3c(nc2cc1OCCCN1CCCC1)CCC3 [Entry 44, 7-methoxy-N-[(1-methylcyclopropyl)methyl]-6-[3-(pyrrolidin-1-yl)propoxy]-1H,2H,3H-cyclopenta[b]quinolin-9-amine formate]
36 nM	COc1cc2c(NCc3ccccc3)c3c(nc2cc1OCCCN1CCCC1)CCC3 [Entry 46, N-benzyl-7-methoxy-6-[3-(pyrrolidin-1-yl)propoxy]-1H,2H,3H-cyclopenta[b]quinolin-9-amine formate]
26 nM	COc1cc2c(NCC(F)(F)F)c3c(nc2cc1OCCCN1CCCC1)CCC3 [Entry 50, 7-methoxy-6-[3-(pyrrolidin-1-yl)propoxy]-N-(2,2,2-trifluoroethyl)-1H,2H,3H-cyclopenta[b]quinolin-9-amine trifluoroacetate]
65 nM	COc1cc2c(NCC3CC3)c3c(nc2cc1OCC1CCN(C)C1)CCC3 (stereo not drawn) [Entry 52, N-(cyclopropylmethyl)-7-methoxy-6-[(1-methylpyrrolidin-3-yl)methoxy]-1H,2H,3H-cyclopenta[b]quinolin-9-amine formate]
21.6 nM	COc1cc2c(NC3CC(C)OC(C)C3)c3c(nc2cc1OCCCN1CCCC1)CCC3 (stereo not drawn) [Entry 53, N-(2,6-dimethyloxan-4-yl)-7-methoxy-6-[3-(pyrrolidin-1-yl)propoxy]-1H,2H,3H-cyclopenta[b]quinolin-9-amine formate]
60.1 nM	COc1cc2c(NCc3ccccn3)c3c(nc2cc1OCCCN1CCCC1)CCC3 [Entry 54, 7-methoxy-N-[pyridin-2-yl)methyl]-6-[3-(pyrrolidin-1-yl)propoxy]-1H,2H,3H-cyclopenta[b]quinolin-9-amine formate]
16 nM	COc1cc2c(NC3CC(OC)C3)c3c(nc2cc1OCCCN1CCCC1)CCC3 (stereo not drawn) [Entry 56, 7-methoxy-N-(3-methoxycyclobutyl)-6-[3-(pyrrolidin-1-yl)propoxy]-1H,2H,3H-cyclopenta[b]quinolin-9-amine formate]

Compound	IC50
2-ethoxy-N-methyl-3-[3-(pyrrolidin-1-yl)propoxy]acridin-9-amine formate and 3-ethoxy-N-methyl-2-[3-(pyrrolidin-1-yl)propoxy]acridin-9-amine formate (1:1) [Entry 118]	75.5 nM
COc1cc2c(NCCO)c3c(nc2cc1OCCCN1CCCC1)CCC3 [Entry 34, 2-({7-methoxy-6-[3-(pyrrolidin-1-yl)propoxy]-1H,2H,3H-cyclopenta[b]quinolin-9-yl}amino)ethan-1-ol formate]	7.6 nM
